Measured values: the Deep4Chem optical property database
Where “and” joins values, the source holds several entries; their conditions need not be identical. Equal values may be shown once. Values belong to the molecule of their own block, whether it stands above or below them.

Experiment: solvent given as SMILES

SMILES: Fc1ccc2c(c1)sc1nc(-c3ccccc3)sc12
emission maximum (in CS(C)=O): 407 nm

SMILES: CCN(CC)c1ccc2cc(-c3ccc(S(C)(=O)=O)cc3)oc(=O)c2c1
emission maximum (in CC(C)=O): 487 nm | emission maximum (in CCCCCC): 419 nm | emission maximum (in CCCCO): 476 nm | emission maximum (in CCCO): 480 nm | emission maximum (in CCO): 485 nm | emission maximum (in CCOC(C)=O): 465 nm | emission maximum (in CN(C)C=O): 499 nm | emission maximum (in CO): 489 nm | emission maximum (in ClC(Cl)Cl): 456 nm

SMILES: COC(=O)C1=C(C(=O)OC)C2(c3ccccc3-c3ccccc32)[C@@H](c2ccc(C)cc2)C=C2c3cc(OC)c(OC)cc3CCN21
emission maximum (in ClCCl): 425 nm

SMILES: CCCC1(CCC)c2cc(-c3ccc(OC)cc3)ccc2-c2ccc(-c3ccc4c(c3)C(CCC)(CCC)c3cc(-c5ccc(OC)cc5)ccc3-4)cc21
emission maximum (in C1CCCCC1): 395 nm

SMILES: CCCCCCN1C(=O)c2cccc3c(-c4ccc(-c5cccs5)s4)ccc(c23)C1=O
emission maximum (in ClC(Cl)Cl): 534 nm

SMILES: CCN(CC)c1ccc2cc(/C=C/C(=C(C#N)C#N)c3ccc(N(c4ccccc4)c4ccccc4)cc3)c(=O)oc2c1
emission maximum (in CC(C)=O): 621 nm | emission maximum (in CCOC(C)=O): 599 nm | emission maximum (in CN(C)C=O): 636 nm | emission maximum (in CS(C)=O): 643 nm | emission maximum (in Cc1ccccc1): 576 nm | emission maximum (in ClCCl): 581 nm

SMILES: COC(=O)CNC(=O)CCNc1cccc2ccccc12
emission maximum (in CCO): 417 nm

SMILES: Cc1ccc2oc(-c3cc4cc(C)ccc4oc3=O)cc2c1
emission maximum (in CC#N): 445 nm | emission maximum (in CCOC(C)=O): 436 nm | emission maximum (in CS(C)=O): 448 nm | emission maximum (in Cc1ccccc1): 436 nm | emission maximum (in O): 498 nm

SMILES: O=P1(c2ccccc2)C(c2ccc(C(F)(F)F)cc2)=Cc2cc3ccccc3cc21 (stereo not given)
emission maximum (in ClCCl): 425 nm

SMILES: O=c1c2cc(F)c(O)cc2n(Cc2ccccc2)c2cc(O)c(F)cc12
emission maximum (in CCO): 431 nm

SMILES: CC(=O)Nc1ccc2c3cccc4cccc(c5cccc1c52)c43
emission maximum (in C1COCCO1): 471 nm | emission maximum (in CC#N): 471 nm | emission maximum (in CCCCOCCCC): 471 nm | emission maximum (in CCOC(C)=O): 471 nm

SMILES: F[B-]1(F)n2c(-c3cccs3)cc(-c3ccccc3)c2N=C2C(c3ccccc3)=CC(c3cccs3)=[N+]21
emission maximum (in CC#N): 732 nm | emission maximum (in ClCCl): 740 nm

SMILES: Cc1cc(C)n2c1C=[N+]1[N+](=C3C=NC=CN3[B-]1(F)F)[B-]2(F)F
emission maximum (in ClCCl): 490 nm

SMILES: CC(C)[Si](C#Cc1c2ccccc2c(C#Cc2c3ccccc3c(C#Cc3c4ccccc4c(C#Cc4c5ccccc5c(C#Cc5c6ccccc6c(C#C[Si](C(C)C)(C(C)C)C(C)C)c6ccccc56)c5ccccc45)c4ccccc34)c3ccccc23)c2ccccc12)(C(C)C)C(C)C
emission maximum (in Cc1ccccc1): 623 nm

SMILES: Nc1ccc2c(C(F)(F)F)cc(=O)oc2c1
emission maximum (in C1CCC2CCCCC2C1): 404 nm | emission maximum (in C1CCCCC1): 401 nm | emission maximum (in C1COCCO1): 442 nm | emission maximum (in CC1CCCCC1): 401 nm | emission maximum (in CC#N): 465 nm and 461 nm | emission maximum (in CC(C)=O): 466 nm | emission maximum (in CC(C)O): 481 nm | emission maximum (in CCC(C)CC): 400 nm | emission maximum (in CCCC(C)C): 399 nm | emission maximum (in CCCCCC): 401 nm | emission maximum (in CCCCCCCCO): 480 nm | emission maximum (in CCCCCCO): 481 nm | emission maximum (in CCCCO): 484 nm | emission maximum (in CCO): 485 nm | emission maximum (in CCOC(C)=O): 456 nm | emission maximum (in CN(C)C=O): 480 nm | emission maximum (in CO): 487 nm | emission maximum (in CS(C)=O): 487 nm

SMILES: O=[N+]([O-])c1ccc(O)c(-c2nc3c(c4c2-c2ccccc2CC4)-c2ccccc2CC3)c1
emission maximum (in ClCCl): 541 nm

SMILES: CCCCCCCCC1(CCCCCCCC)c2cc(-c3ccc(C(F)(F)F)cc3)ccc2-c2ccc(N(c3ccc(-n4c5ccccc5c5ccccc54)cc3)c3ccc4c(c3)C(CCCCCCCC)(CCCCCCCC)c3cc(-c5ccc(C(F)(F)F)cc5)ccc3-4)cc21
emission maximum (in C1CCOC1): 455 nm | emission maximum (in C1COCCO1): 434 nm | emission maximum (in CC#N): 495 nm | emission maximum (in CC(C)=O): 477 nm | emission maximum (in CCCCCC): 416 nm | emission maximum (in CCCCOCCCC): 425 nm | emission maximum (in CCN(CC)CC): 423 nm | emission maximum (in CCOC(C)=O): 450 nm | emission maximum (in CCOCC): 432 nm | emission maximum (in CN(C)C=O): 493 nm | emission maximum (in CS(C)=O): 486 nm | emission maximum (in Cc1ccccc1): 427 nm | emission maximum (in ClC(Cl)Cl): 445 nm | emission maximum (in ClCCl): 465 nm | emission maximum (in c1ccccc1): 428 nm

SMILES: CCOC(=O)C1=C(C(=O)OCC)C2(c3cc(Cl)ccc3-c3ccc(Cl)cc32)C2(/C=C/c3ccccc3)c3cc(OC)c(OC)cc3CCN12 (stereo not given)
emission maximum (in ClCCl): 456 nm

SMILES: F[B-]1(F)n2c(nc(-c3ccccc3)c2-c2ccccc2)-c2cccc[n+]21
emission maximum (in C1CCCCC1): 517 nm | emission maximum (in C1CCOC1): 537 nm | emission maximum (in C1COCCO1): 510 nm | emission maximum (in CC#N): 543 nm and 498 nm | emission maximum (in CCCCCC): 510 nm and 515 nm | emission maximum (in CO): 525 nm and 534 nm | emission maximum (in ClC(Cl)Cl): 520 nm and 528 nm | emission maximum (in ClCCl): 528 nm

SMILES: COc1cc2c3c4c(c5ccc(C(C)(C)C)cc5c5cc(C(C)(C)C)cc(c2c(OC)c1OC)c45)=[N+]1C3=Nc2c3c4cc(OC)c(OC)c(OC)c4c4cc(C(C)(C)C)cc5c6cc(C(C)(C)C)ccc6c(c3c54)n2[B-]1(F)F
emission maximum (in Cc1ccccc1): 832 nm

SMILES: Nc1ccc2c(-c3ccc(Br)cc3)c3ccc(=[NH2+])cc-3oc2c1
emission maximum (in CCO): 532 nm

SMILES: N#C/C(=C\c1cc(/C=C(\C#N)c2ccc(C(F)(F)F)cc2)c(-c2ccc(N(c3ccccc3)c3ccccc3)cc2)cc1-c1ccc(N(c2ccccc2)c2ccccc2)cc1)c1ccc(C(F)(F)F)cc1
emission maximum (in C1CCCCC1): 478 nm | emission maximum (in C1CCOC1): 587 nm | emission maximum (in CCCCCC): 473 nm | emission maximum (in CCOC(C)=O): 581 nm | emission maximum (in Cc1ccccc1): 515 nm | emission maximum (in ClC(Cl)Cl): 553 nm | emission maximum (in ClCCl): 594 nm

SMILES: c1ccc(-c2nc(-c3ccccc3)nc(-c3ccc(-n4c5ccccc5c5cc(-n6c7ccccc7c7ccccc76)ccc54)c4c5ccccc5n(-c5ccccc5)c34)n2)cc1
emission maximum (in C1CCOC1): 496.59 nm | emission maximum (in Cc1ccccc1): 429 nm | emission maximum (in ClCCl): 531.36 nm

SMILES: Cc1cc(-c2nc(-c3ccccc3)nc(-c3ccccc3)n2)c(C)cc1-c1ccc2c(c1)C1(c3ccccc3-c3ccccc31)c1ccccc1N2c1ccccc1
emission maximum (in c1cc(-c2cccc(-n3c4ccccc4c4ccccc43)c2)cc(-n2c3ccccc3c3ccccc32)c1): 446 nm

SMILES: CCN(CC)c1ccc(/C=C/C(=O)c2c(O)cc(C)oc2=O)cc1
emission maximum (in CC#N): 562 nm | emission maximum (in CCCO): 562 nm | emission maximum (in CCO): 570 nm | emission maximum (in CCOC(C)=O): 545 nm | emission maximum (in Cc1ccccc1): 534 nm | emission maximum (in ClCCl): 575 nm

SMILES: CC1(C)C(/C=C/C=C/C=C/C=C2/N(CCCCCC(=O)O)c3ccc(S(=O)(=O)[O-])cc3C2(C)C)=[N+](CCCCS(=O)(=O)[O-])c2ccc(S(=O)(=O)[O-])cc21
emission maximum (in CO): 774 nm | emission maximum (in O): 771 nm

SMILES: O=c1oc2ccccc2c2c1c(=O)oc1ccc3ccc(O)cc3c12
emission maximum (in CS(C)=O): 506 nm | emission maximum (in ClCCl): 517 nm

SMILES: c1ccc(-c2ccc(-c3ccc4c(c3)CCCO4)cc2)cc1
emission maximum (in C1CCCCC1): 359 nm

SMILES: CCCCc1ccc(-n2c3c4ccc(C(F)(F)F)cc4nc(-c4ccc(C#N)cc4)c3c3c2c2c(-c4ccc(C#N)cc4)nc4cc(C(F)(F)F)ccc4c2n3-c2ccc(CCCC)cc2)cc1
emission maximum (in ClC(Cl)Cl): 499 nm

Next, values leading:

emission maximum (in CCO): 472 nm | emission maximum (in ClCCl): 460 nm
SMILES: CCN(CC)c1ccc2cc(C#N)/c(=N\C(=O)c3ccccc3)oc2c1

emission maximum (in ClCCl): 495 nm
SMILES: CCN(CC)c1ccc2cc(-c3nc4cc(C(=O)Nc5cccc(C)c5)ccc4o3)c(=O)oc2c1

emission maximum (in CC#N): 413 nm
SMILES: C=Cc1cc2ccccc2oc1=O

emission maximum (in O): 350 nm
SMILES: CCOC(=O)c1c(CSc2ccccc2)n(C)c2cc(Br)c(O)c(CN(C)C)c12

emission maximum (in C1CCCCC1): 390 nm | emission maximum (in CO): 405 nm
SMILES: Cc1ccc(/C=C/c2nc3ccccc3s2)cc1

emission maximum (in CO): 581 nm
SMILES: CCN(C)c1ccc(C2=C3C(C)=CC(/C=C/c4ccc(OCC(=O)OC)cc4)=[N+]3[B-](F)(F)n3c(C)cc(C)c32)cc1

emission maximum (in ClCCl): 458 nm
SMILES: COc1cc(-c2cnc(-c3cnc4ccccc4c3)o2)cc(OC)c1OC

emission maximum (in C1CCOC1): 637 nm | emission maximum (in CCCCCC): 637 nm | emission maximum (in CO): 637 nm | emission maximum (in CS(C)=O): 639 nm | emission maximum (in ClC(Cl)Cl): 637 nm | emission maximum (in ClCCl): 638 nm
SMILES: CC1=[N+]2C(=c3c4c5ccccc5cc5cccc(c6cc(C)n(c36)[B-]2(F)F)c54)C=C1

emission maximum (in C1CCOC1): 610 nm | emission maximum (in CS(C)=O): 621 nm | emission maximum (in ClCCl): 610 nm
SMILES: COc1cc(OC)cc(C2=C3C(C)=C(I)C(C)=[N+]3[B-](F)(F)n3c(/C=C/c4ccsc4)c(I)c(C)c32)c1

emission maximum (in CCO): 443 nm
SMILES: CN(C)c1cc2c(cc1F)c(=O)c1cc(F)c(N3CCCCC3)cc1n2C

emission maximum (in C1CCOC1): 560 nm | emission maximum (in CC#N): 606 nm | emission maximum (in CCCCCC): 492 nm
SMILES: CC1=N/C(=C\c2cc(N(C)C)ccc2C#N)C(=O)N1C

emission maximum (in C1CCOC1): 407.5 nm | emission maximum (in CC#N): 399.5 nm | emission maximum (in CCCCCC): 399 nm | emission maximum (in CCOC(C)=O): 404.5 nm | emission maximum (in CN(C)C=O): 451 nm | emission maximum (in CO): 403 nm | emission maximum (in CS(C)=O): 401.5 nm | emission maximum (in ClC(Cl)Cl): 412.4 nm
SMILES: Cc1ccc(NC(=O)c2sc(Br)nc2C)cc1

emission maximum (in ClCCl): 542 nm
SMILES: CCC1=C(C)C2=C(/C=C/c3ccc(OC)cc3)c3c(C)c(CC)c(C)n3[B-](F)(F)[N+]2=C1C

emission maximum (in CC#N): 415 nm | emission maximum (in CN(C)C=O): 433 nm | emission maximum (in ClCCl): 432 nm
SMILES: CCN(CC)c1ccc(/C=N/CC/N=C/c2ccc(N(CC)CC)cc2O)c(O)c1

emission maximum (in ClC(Cl)Cl): 501 nm
SMILES: CCCCCCN1C(=O)c2cccc3cc(/N=C\c4c[nH]c5c4ccc4ccccc45)cc(c23)C1=O

emission maximum (in C1COCCO1): 461 nm
SMILES: CC(=O)Nc1ccc(C2=N/C(=C\c3ccc(C#N)cc3)C(=O)O2)cc1

emission maximum (in O): 663 nm
SMILES: Cc1cc(N(C)C)ccc1C1=C2C=CC(=[N+](C)C)C=C2[Si](C)(C)c2cc(N(C)C)ccc21

emission maximum (in CC#N): 463 nm | emission maximum (in CCCCCC): 452 nm | emission maximum (in CO): 482 nm | emission maximum (in CS(C)=O): 475 nm | emission maximum (in ClC(Cl)Cl): 460 nm
SMILES: C/C(=N\Nc1ccc(C#N)cc1)c1ccccn1
